{
  "source": "ChEMBL document CHEMBL1201862",
  "about": "“PubChem BioAssay data set” (2004)",
  "key": {"[1]": {"tested_on": "BJ", "experiment": "cytotoxicity toward Ras-transformed BJeLR fibroblasts, dose response, cell-based, alamar blue fluorescence, cherrypicked samples (AID 2631)", "format": "functional", "conditions": "Homo sapiens"}, "[2]": {"experiment": "growth suppression of beta-catenin-knockout colon cells, dose response, cell-based, HCT116, human colon tumor (AID 1045);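 further: HCT116 colon tumor cells with beta catenin knocked out; cells exposed to compound for 60 hours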", "format": "functional"}, "[3]": {"experiment": "inhibitors of clade B AD8 Env fusion, dose response, cell-based, cherry-pick (AID 652062);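 further: potency is for inhibitors of fusion seen as a drop in luminescence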", "format": "functional"}, "[4]": {"tested_on": "BJ", "experiment": "cells", "format": "functional, cell-based", "conditions": "Homo sapiens"}, "[5]": {"experiment": "inhibitors of SNCA 5'UTR-driven reporter translation, confirmation, H4 neuroglioma cells, luminescence (AID 1988)", "format": "functional, cell-based"}, "[6]": {"target": "Voltage-dependent T-type calcium channel subunit alpha-1H (Homo sapiens, UniProt O95180)", "sequence (O95180 whole entry)": "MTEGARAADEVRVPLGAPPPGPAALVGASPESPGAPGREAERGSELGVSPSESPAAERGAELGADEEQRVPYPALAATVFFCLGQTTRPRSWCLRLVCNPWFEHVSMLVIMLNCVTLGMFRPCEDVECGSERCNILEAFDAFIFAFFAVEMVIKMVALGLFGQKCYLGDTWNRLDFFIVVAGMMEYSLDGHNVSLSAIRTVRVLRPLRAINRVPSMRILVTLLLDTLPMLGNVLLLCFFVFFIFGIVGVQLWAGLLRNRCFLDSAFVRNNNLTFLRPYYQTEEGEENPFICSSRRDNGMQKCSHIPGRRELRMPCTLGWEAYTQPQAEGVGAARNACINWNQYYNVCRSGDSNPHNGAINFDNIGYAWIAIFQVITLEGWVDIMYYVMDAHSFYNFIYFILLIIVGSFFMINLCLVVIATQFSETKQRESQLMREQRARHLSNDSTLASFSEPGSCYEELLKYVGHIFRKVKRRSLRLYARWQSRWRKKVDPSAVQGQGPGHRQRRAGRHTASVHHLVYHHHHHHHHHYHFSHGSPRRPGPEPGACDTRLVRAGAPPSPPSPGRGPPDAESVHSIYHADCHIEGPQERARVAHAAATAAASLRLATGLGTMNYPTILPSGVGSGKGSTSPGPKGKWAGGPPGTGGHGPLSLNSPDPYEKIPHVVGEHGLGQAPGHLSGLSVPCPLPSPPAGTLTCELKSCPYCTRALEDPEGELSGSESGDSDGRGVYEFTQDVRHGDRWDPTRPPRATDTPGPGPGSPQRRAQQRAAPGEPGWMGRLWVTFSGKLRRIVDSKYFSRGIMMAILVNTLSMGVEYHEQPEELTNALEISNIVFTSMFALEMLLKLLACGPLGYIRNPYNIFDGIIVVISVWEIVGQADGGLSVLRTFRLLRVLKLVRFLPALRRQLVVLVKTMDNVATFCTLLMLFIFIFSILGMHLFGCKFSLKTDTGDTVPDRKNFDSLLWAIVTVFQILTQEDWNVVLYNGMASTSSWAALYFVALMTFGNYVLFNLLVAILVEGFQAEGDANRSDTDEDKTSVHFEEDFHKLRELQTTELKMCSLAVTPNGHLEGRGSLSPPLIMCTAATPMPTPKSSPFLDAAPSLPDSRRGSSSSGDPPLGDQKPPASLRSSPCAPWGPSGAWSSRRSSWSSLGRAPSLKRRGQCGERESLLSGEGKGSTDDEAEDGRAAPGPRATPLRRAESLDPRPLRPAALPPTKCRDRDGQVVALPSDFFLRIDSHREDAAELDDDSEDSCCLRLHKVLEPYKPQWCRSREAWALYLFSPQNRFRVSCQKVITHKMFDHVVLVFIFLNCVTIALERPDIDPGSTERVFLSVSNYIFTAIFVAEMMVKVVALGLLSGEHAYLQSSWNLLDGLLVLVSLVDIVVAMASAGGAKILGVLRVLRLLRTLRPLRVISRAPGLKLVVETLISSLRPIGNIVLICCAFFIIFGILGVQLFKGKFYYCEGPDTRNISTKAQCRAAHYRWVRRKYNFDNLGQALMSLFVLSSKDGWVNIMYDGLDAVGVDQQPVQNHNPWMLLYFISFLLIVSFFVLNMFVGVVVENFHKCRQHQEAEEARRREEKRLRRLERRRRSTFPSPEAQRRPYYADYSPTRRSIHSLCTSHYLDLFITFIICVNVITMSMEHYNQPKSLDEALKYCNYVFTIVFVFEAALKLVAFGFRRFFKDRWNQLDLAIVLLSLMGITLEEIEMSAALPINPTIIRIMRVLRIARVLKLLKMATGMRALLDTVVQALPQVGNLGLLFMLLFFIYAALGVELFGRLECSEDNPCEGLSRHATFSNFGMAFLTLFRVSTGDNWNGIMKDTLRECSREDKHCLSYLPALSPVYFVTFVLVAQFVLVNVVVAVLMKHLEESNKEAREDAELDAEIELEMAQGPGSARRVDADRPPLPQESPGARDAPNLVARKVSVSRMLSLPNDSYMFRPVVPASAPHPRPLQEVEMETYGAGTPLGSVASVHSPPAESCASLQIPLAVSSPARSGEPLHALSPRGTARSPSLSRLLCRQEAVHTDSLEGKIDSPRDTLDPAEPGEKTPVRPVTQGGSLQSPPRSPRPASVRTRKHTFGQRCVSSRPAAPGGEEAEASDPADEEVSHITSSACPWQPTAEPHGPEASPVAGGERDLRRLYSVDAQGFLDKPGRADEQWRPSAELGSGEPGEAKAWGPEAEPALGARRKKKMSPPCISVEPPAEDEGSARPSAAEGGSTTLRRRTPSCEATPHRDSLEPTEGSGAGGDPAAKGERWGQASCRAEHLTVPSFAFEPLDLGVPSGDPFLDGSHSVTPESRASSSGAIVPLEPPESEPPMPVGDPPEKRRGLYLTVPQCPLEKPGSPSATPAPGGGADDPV", "format": "functional"}, "[7]": {"experiment": "inhibitors of firefly luciferase expression or activity, dose response, H4 neuroglioma cells, luminescence (AID 1990)", "format": "functional, cell-based"}, "[8]": {"experiment": "Luminescence Cell-Based Dose Response HTS to Identify Inhibitors of 5'UTR Stem-Loop Driven Prion Protein mRNA Translation in H4 Neuroglioblastoma Cells. [Related pubchem assays: 1827 (Project Summary), 1813 (Primary HTS)]", "format": "functional"}, "[9]": {"experiment": "cytotoxicity toward DRD oncogenic fibroblasts, dose response, cell-based, non-viral oncogenic, luminescence (AID 1934)", "format": "functional", "conditions": "Homo sapiens"}, "[10]": {"tested_on": "BJ", "experiment": "cytotoxicity toward BJ-TERT-LT-ST fibroblasts, dose response, cell-based, RAS-independent, luminescence (AID 1935);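 further: BJ fibroblasts immortalized with TERT plus LT and ST oncogenes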", "format": "functional", "conditions": "Homo sapiens"}, "[11]": {"experiment": "cytotoxicity in KRAS-transformed pancreatic duct cells, primary screen, cell-based, fluorescence, HTS (AID 431);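 further: cell line used: HPDE-C7K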", "format": "functional", "conditions": "Homo sapiens"}, "[12]": {"tested_on": "HEK293", "experiment": "inhibitors of LMP1-driven NF-kB reporter, dose response, cell-based, HEK293, luciferase, cherry-pick (AID 588343)", "format": "functional", "conditions": "Homo sapiens"}, "[13]": {"target": "Paired box protein Pax-8 (Homo sapiens, UniProt Q06710)", "sequence (Q06710 whole entry)": "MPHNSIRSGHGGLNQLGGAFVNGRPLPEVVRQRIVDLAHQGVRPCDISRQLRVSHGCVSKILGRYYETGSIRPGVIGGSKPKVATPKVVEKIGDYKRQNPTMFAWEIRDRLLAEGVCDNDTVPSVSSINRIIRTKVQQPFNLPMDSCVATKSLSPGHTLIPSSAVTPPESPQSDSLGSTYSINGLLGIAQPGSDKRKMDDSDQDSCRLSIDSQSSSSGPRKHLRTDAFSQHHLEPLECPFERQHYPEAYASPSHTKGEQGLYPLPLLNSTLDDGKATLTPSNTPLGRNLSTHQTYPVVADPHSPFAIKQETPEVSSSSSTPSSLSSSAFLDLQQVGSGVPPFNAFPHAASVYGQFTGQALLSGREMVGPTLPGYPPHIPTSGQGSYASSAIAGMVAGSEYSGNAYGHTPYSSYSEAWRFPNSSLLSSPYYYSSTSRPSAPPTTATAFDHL", "experiment": "inhibitors of PAX8-driven TPO luciferase reporter, dose response, RMG-I cells, cherry-pick (AID 687027);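 further: luciferase reporter driven by Pax8 target thyroperoxidase promoter measured by SteadyGlo luminescence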", "format": "functional, cell-based"}, "[14]": {"experiment": "growth suppression of PTEN-null colon cells, dose response, cell-based, HCT116 PTEN knockout (AID 1047);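 further: HCT116 colon tumor cells with PTEN knocked out; cells exposed to compound for 60 hours before readout; potency for loss of cell viability measured by luminescence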", "format": "functional"}, "[15]": {"experiment": "CEM21 lymphoblast cell cytotoxicity, dose response, cytotoxicity control for viral fusion inhibitor project, CellTiter-Glo luminescence, cherry-picked (AID 652042);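 further: potency for signal decrease meaning cytotoxicity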", "format": "functional, cell-based"}, "[16]": {"experiment": "ZM109 Env clade C HIV-1 fusion inhibitors, dose response, HeLa effector, CEM target cells, luciferase, cherry-pick (AID 652058)", "format": "functional, cell-based"}, "[17]": {"experiment": "off-target signal loss in HeLa-CEM21 co-culture – HeLa F-luc CTL cells, cherry-picked, counter-screen for HIV-1 Env fusion inhibitor project, dose response (AID 652040);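 further: potency for signal decrease marking cytotoxic or nonspecific inhibition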", "format": "functional, cell-based"}, "[18]": {"tested_on": "BJ", "experiment": "cytotoxicity toward BJ-TERT fibroblasts, dose response, cell-based, RAS-independent, luminescence (AID 1933)", "format": "functional", "conditions": "Homo sapiens"}, "[19]": {"target": "T1, Heat shock factor protein 1 (Mus musculus, UniProt P38532)", "T1 sequence (P38532 whole entry)": "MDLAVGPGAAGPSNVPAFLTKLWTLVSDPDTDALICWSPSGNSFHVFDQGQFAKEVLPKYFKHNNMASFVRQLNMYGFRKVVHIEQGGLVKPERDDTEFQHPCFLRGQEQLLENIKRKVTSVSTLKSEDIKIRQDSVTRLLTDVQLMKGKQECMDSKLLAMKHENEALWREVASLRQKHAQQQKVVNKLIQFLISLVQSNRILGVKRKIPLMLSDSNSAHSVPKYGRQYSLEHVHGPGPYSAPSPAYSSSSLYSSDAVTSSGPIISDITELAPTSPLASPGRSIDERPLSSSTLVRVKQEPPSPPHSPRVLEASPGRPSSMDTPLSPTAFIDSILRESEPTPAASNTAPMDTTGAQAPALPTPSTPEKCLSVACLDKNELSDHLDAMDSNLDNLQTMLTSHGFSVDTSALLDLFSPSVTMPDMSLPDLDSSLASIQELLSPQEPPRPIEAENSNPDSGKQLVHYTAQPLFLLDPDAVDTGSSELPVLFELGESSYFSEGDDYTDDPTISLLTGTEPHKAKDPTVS", "experiment": "inhibition of MG132-induced HSE-luciferase signal, confirmation, cell-based, NIH3T3, luminescence, dose retest (AID 2382);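 further: NIH3T3 fibroblasts with HSF1-driven luciferase reporter stressed by proteasome inhibitor MG132; luminescence from HSF1-driven luciferase expression after 8 hours of MG132 stress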", "format": "functional"}, "[20]": {"experiment": "non-specific cell cytotoxicity, dose response, cytotoxicity control for PAX8 inhibitor project, plate reader, dry powder samples (AID 743021)", "format": "functional, cell-based"}, "[21]": {"experiment": "inhibitors of HIV Env-driven cell fusion, dose response, cherry-pick (AID 652057)", "format": "functional, cell-based"}, "[22]": {"experiment": "cytotoxicity in HPDE-C7 cells, cell-based, fluorescence, HTS (AID 430)", "format": "functional", "conditions": "Homo sapiens"}, "[23]": {"experiment": "MC4R antagonists, dose response, counter-screen for LGR2 antagonist project, cell-based, plate reader, cherry pick (AID 743444);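 further: transfected HEK 293 cells stimulated with alpha-MSH peptide; potency of inhibitors of the alpha-MSH evoked signal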", "format": "functional"}, "[24]": {"experiment": "HEK293 cell cytotoxicity, dose response, cytotoxicity control, plate reader, cherry-picked samples (AID 743446)", "format": "functional, cell-based"}, "[25]": {"experiment": "LGR2 antagonists, dose response, cell-based, HEK293, CRE-luciferase reporter, cherry pick, set 2 (AID 743343);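 further: transfected cells were stimulated with diluted bursicon conditioned medium after compound addition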", "format": "functional"}, "[26]": {"experiment": "A549 cell cytotoxicity, dose response, cytotoxicity control, plate reader, cherry-pick, antagonist series (AID 743412)", "format": "functional, cell-based"}, "[27]": {"experiment": "HepG2 cell cytotoxicity, dose response, cytotoxicity control, plate reader, cherry-pick, antagonist series (AID 743416)", "format": "functional, cell-based"}, "[28]": {"experiment": "cells", "conditions": "HEK293"}, "[29]": {"experiment": "NIH:OVCAR-3 ovarian cancer cell cytotoxicity, dose response, PAX8 inhibitor project, plate reader, dry powder samples (AID 743044)", "format": "functional, cell-based"}, "[30]": {"experiment": "A2780 ovarian cancer cell cytotoxicity, dose response, cytotoxicity control, plate reader, dry powder samples (AID 743046)", "format": "functional, cell-based"}, "[31]": {"experiment": "cytotoxicity in OVCAR8 ovarian cancer cells, dose response, PAX8 project, cell-based, plate reader, dry powder samples (AID 743197)", "format": "functional", "conditions": "OVCAR-8"}, "[32]": {"experiment": "IGROV1 ovarian cancer cell cytotoxicity, dose response, PAX8 inhibitor project, plate reader, dry powder samples (AID 743043)", "format": "functional, cell-based", "conditions": "IGROV-1"}, "[33]": {"experiment": "IOSE-T80 ovarian epithelial cell cytotoxicity, dose response, cytotoxicity control for PAX8 inhibitor project, plate reader, dry powder samples (AID 743045)", "format": "functional, cell-based"}, "[34]": {"experiment": "HIV Env cell-cell fusion inhibitors, dose response, HIV entry, plate reader, dry powder (AID 687023)", "format": "functional, cell-based"}, "[35]": {"experiment": "CEM21 cell cytotoxicity, dose response, cytotoxicity control, plate reader, dry powder (AID 687026)", "format": "functional, cell-based"}},
  "note": "Active and inactive are the calls of the source.",
  "data": [
    {"smiles": "O=S(=O)(c1ccc2c(c1)C(=NO)c1cc(S(=O)(=O)N3CCCCC3)ccc1-2)N1CCCCC1", "values": [
      {"measurement": "EC50", "setting": "[1]", "value": "2.97 µM (active)"},
      {"measurement": "EC50", "setting": "[2]", "value": "0.352 µM (active)"},
      {"measurement": "AC50", "setting": "[3]", "value": "0.879 µM (active)"},
      {"measurement": "EC50", "setting": "[4]", "value": "2.71 µM (inconclusive)"},
      {"measurement": "EC50", "setting": "[5]", "value": "3.8 µM (active)"},
      {"measurement": "EC50", "setting": "[6]", "value": "12.3 µM (active)"},
      {"measurement": "EC50", "setting": "[7]", "value": "6.01 µM (active)"},
      {"measurement": "EC50", "setting": "[8]", "value": "7.79 µM (active)"},
      {"measurement": "EC50", "setting": "[9]", "value": "2.68 µM (inconclusive)"},
      {"measurement": "EC50", "setting": "[10]", "value": "2.65 µM (inconclusive)"},
      {"measurement": "EC50", "setting": "[11]", "value": "0.39 µM (active)"},
      {"measurement": "AC50", "setting": "[12]", "value": "2.99 µM (active)"},
      {"measurement": "AC50", "setting": "[13]", "value": "0.871 µM (active)"},
      {"measurement": "EC50", "setting": "[14]", "value": "0.412 µM (active)"},
      {"measurement": "AC50", "setting": "[15]", "value": "0.287 µM (active)"},
      {"measurement": "AC50", "setting": "[16]", "value": "0.794 µM (active)"},
      {"measurement": "AC50", "setting": "[17]", "value": "0.767 µM (active)"},
      {"measurement": "EC50", "setting": "[18]", "value": "1.02 µM (inconclusive)"},
      {"measurement": "EC50", "setting": "[19]", "value": "0.749 µM (active)"},
      {"measurement": "AC50", "setting": "[20]", "value": "1.5 µM (active)"},
      {"measurement": "AC50", "setting": "[21]", "value": "0.73 µM (active)"},
      {"measurement": "EC50", "setting": "[22]", "value": "0.3 µM (active)"}
    ]},
    {"smiles": "CCCCOc1ccc(-c2cnc3ccccc3n2)cc1", "values": [
      {"measurement": "AC50", "setting": "[23]", "value": "6.65 µM (active)"},
      {"measurement": "AC50", "setting": "[24]", "value": "> 52 µM (inactive)"},
      {"measurement": "AC50", "setting": "[25]", "value": "4.56 µM (active)"},
      {"measurement": "AC50", "setting": "[26]", "value": "> 52 µM (inactive)"},
      {"measurement": "AC50", "setting": "[27]", "value": "> 52 µM (inactive)"}
    ]},
    {"smiles": "COc1cccc(Nc2nc(C(N)Cc3ccc(F)cc3)cs2)n1", "note": "(centres undefined)", "values": [
      {"measurement": "AC50", "setting": "[23]", "value": "31.1 µM (active)"},
      {"measurement": "AC50", "setting": "[24]", "value": "16.8 µM (active)"},
      {"measurement": "AC50", "setting": "[25]", "value": "28.5 µM (active)"},
      {"measurement": "AC50", "setting": "[26]", "value": "14.5 µM (active)"},
      {"measurement": "AC50", "setting": "[27]", "value": "13.9 µM (active)"}
    ]},
    {"smiles": "CCN1C(=O)c2cccc3c(S(=O)(=O)N(C)C)ccc1c23", "values": [
      {"measurement": "AC50", "setting": "[28]", "value": "> 52 µM (inactive)"}
    ]},
    {"smiles": "CS(=O)(=O)N1CC(=O)N2[C@H](CO)[C@H](c3ccc(C#CCC4CCCC4)cc3)[C@H]2C1", "values": [
      {"measurement": "AC50", "setting": "[29]", "value": "23 µM (active)"},
      {"measurement": "AC50", "setting": "[30]", "value": "33.1 µM (active)"},
      {"measurement": "AC50", "setting": "[13]", "value": "5.98 µM (active)"}
    ]},
    {"smiles": "O=C(C[C@@H]1CC[C@@H]2[C@H](COC[C@H](O)CN2S(=O)(=O)c2ccccc2Cl)O1)N1CCC(Cc2ccccc2)CC1", "values": [
      {"measurement": "AC50", "setting": "[13]", "value": "13.3 µM (active)"},
      {"measurement": "AC50", "setting": "[31]", "value": "44.9 µM (active)"},
      {"measurement": "AC50", "setting": "[32]", "value": "37.6 µM (active)"},
      {"measurement": "AC50", "setting": "[33]", "value": "31.5 µM (active)"}
    ]},
    {"smiles": "C[C@H]1CN([C@@H](C)CO)C(=O)c2ccccc2-c2ccccc2CO[C@H]1CN(C)S(=O)(=O)c1ccccc1C#N", "values": [
      {"measurement": "AC50", "setting": "[34]", "value": "47 µM (active)"},
      {"measurement": "AC50", "setting": "[16]", "value": "3.49 µM (active)"},
      {"measurement": "AC50", "setting": "[35]", "value": "> 70 µM (inactive)"},
      {"measurement": "AC50", "setting": "[21]", "value": "0.838 µM (active)"}
    ]}
  ]
}
